From BindingDB's records for doi:10.1021/jm400938g (State Key Laboratory of Bioreactor Engineering, 2013)

Key:
[1] = target: Dihydroorotate dehydrogenase (quinone), mitochondrial (Homo sapiens, UniProt Q02127); assay: Inhibition of N-terminal His10-tagged human DHODH (Met30 to Arg396) expressed in Escherichia coli BL21 (DE3) using dihydroorotate as substrate measured every 30 secs for 6 mins by DCIP dye-based assay
[2] = target: T1, Dihydroorotate dehydrogenase (quinone), mitochondrial (Plasmodium falciparum, UniProt Q54A96); assay: Inhibition of Plasmodium falciparum DHODH (Phe158 to Ser569) expressed in Escherichia coli BL21 using dihydroorotate as substrate measured every 30 secs for 6 mins by DCIP dye-based assay
T1 sequence (Q54A96 whole entry): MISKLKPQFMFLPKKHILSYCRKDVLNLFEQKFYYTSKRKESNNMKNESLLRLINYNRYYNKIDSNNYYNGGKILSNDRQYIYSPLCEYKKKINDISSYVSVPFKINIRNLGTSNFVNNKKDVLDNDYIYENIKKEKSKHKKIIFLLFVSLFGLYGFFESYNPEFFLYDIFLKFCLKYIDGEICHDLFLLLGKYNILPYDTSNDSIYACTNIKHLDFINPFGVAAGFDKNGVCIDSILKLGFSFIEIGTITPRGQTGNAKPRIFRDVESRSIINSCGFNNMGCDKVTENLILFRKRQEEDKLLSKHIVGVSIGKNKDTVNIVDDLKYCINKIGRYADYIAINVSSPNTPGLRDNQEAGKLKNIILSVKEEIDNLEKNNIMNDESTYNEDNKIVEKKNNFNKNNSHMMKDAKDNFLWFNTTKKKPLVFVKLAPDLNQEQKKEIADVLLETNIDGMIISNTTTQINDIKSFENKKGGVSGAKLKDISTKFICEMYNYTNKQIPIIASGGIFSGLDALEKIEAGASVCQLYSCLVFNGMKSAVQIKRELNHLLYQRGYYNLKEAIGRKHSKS

Dihydroorotate dehydrogenase (quinone), mitochondrial (Homo sapiens, UniProt Q02127), sequence (Q02127 whole entry): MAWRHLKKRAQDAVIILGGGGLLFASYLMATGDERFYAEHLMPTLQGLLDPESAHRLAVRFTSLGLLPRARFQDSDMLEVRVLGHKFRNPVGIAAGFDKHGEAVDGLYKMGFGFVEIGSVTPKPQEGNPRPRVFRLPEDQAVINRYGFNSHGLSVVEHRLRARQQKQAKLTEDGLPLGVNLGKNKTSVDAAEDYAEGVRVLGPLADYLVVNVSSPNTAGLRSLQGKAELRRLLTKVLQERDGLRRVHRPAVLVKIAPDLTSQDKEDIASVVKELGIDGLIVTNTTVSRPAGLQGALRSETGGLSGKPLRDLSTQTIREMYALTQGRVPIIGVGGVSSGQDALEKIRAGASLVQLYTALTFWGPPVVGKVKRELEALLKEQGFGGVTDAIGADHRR

IC50 [1] [µM]	IC50 [2] [µM]	Compound
> 50	> 50	O=C(NCC1CC1)c1c(O)csc1Nc1ccc2ccccc2c1
> 50	> 50	CCCCNC(=O)c1c(O)csc1Nc1ccc2ccccc2c1
> 50	> 50	CCCNC(=O)c1c(O)csc1Nc1ccc2ccccc2c1
> 50	> 50	Cc1ccc(Nc2scc(O)c2C(N)=O)cc1C
> 50	> 50	Cc1ccc(Nc2scc(O)c2C(=O)O)cc1C
> 50	> 50	CCOC(=O)c1c(O)csc1Nc1ccc(Br)cc1C
> 50	> 50	CCOC(=O)c1c(O)csc1Nc1cccc(C(F)(F)F)c1
> 50	> 50	CCOC(=O)c1c(O)csc1Nc1ccccc1
